ChEMBL document CHEMBL1135113 (Bioorg Med Chem Lett, 2002)
Activity calls are given as the source filed them. The rule behind the calls is not given here.

Experiments:
Integrin alpha-V/beta-3 = Integrin alpha-V/beta-3 (Homo sapiens, UniProt P05106+P06756); assay: Selectivity against alphaV-beta3 integrin; assay type: protein-complex assay
[1] = target: T1, Integrin alpha-IIb/beta-3 (Homo sapiens, UniProt P05106+P08514); assay: Selectivity against Integrin alpha-IIb beta-3 receptor versus fibrinogen; Not active; assay type: protein-complex assay
Homo sapiens = species on record: Homo sapiens; assay: Efficacy of compound in cell migration of primary human Smooth Muscle Cells (SMC) was determined; assay type: functional
[2] = target: T2, Integrin alpha-4/beta-1 (Homo sapiens) (UniProt P05556+P13612); assay: Cell adhesion activity against alpha4-beta1 integrin at 10 e-5M (not active); assay type: protein-complex assay
[3] = target: Integrin alpha-5/beta-1 (Homo sapiens) (UniProt P05556+P08648); assay: Cell adhesion activity against alpha5-beta1 integrin; assay type: protein-complex assay
[4] = target: T1, Integrin alpha-IIb/beta-3; assay: Selectivity against alpha IIb beta-3 integrin; Not active; assay type: protein-complex assay
[5] = target: T2, Integrin alpha-4/beta-1 (Homo sapiens); assay: Cell adhesion activity against alpha4-beta1 integrin at 10e-5 M; assay type: protein-complex assay

T1 sequence (P05106 27-788 limits assumed): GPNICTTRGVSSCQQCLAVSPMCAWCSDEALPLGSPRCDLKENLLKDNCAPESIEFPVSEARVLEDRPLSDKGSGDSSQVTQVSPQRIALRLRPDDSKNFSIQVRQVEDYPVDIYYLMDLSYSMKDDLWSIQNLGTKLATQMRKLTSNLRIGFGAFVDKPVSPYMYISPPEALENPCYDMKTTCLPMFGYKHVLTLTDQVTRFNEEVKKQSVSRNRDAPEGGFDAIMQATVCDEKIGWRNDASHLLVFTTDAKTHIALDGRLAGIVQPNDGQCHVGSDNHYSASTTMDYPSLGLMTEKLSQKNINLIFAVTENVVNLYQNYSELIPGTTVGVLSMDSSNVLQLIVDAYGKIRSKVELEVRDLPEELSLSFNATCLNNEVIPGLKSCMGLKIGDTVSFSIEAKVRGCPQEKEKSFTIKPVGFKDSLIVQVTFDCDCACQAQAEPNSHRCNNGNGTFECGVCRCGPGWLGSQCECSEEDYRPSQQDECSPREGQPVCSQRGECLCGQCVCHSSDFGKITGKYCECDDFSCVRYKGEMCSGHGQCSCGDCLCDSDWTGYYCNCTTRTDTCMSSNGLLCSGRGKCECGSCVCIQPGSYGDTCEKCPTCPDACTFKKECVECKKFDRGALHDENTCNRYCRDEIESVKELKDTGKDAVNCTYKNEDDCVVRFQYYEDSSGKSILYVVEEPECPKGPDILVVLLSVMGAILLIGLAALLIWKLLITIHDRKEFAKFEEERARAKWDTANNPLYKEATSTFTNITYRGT
T1 sequence (P08514 32-887 limits assumed): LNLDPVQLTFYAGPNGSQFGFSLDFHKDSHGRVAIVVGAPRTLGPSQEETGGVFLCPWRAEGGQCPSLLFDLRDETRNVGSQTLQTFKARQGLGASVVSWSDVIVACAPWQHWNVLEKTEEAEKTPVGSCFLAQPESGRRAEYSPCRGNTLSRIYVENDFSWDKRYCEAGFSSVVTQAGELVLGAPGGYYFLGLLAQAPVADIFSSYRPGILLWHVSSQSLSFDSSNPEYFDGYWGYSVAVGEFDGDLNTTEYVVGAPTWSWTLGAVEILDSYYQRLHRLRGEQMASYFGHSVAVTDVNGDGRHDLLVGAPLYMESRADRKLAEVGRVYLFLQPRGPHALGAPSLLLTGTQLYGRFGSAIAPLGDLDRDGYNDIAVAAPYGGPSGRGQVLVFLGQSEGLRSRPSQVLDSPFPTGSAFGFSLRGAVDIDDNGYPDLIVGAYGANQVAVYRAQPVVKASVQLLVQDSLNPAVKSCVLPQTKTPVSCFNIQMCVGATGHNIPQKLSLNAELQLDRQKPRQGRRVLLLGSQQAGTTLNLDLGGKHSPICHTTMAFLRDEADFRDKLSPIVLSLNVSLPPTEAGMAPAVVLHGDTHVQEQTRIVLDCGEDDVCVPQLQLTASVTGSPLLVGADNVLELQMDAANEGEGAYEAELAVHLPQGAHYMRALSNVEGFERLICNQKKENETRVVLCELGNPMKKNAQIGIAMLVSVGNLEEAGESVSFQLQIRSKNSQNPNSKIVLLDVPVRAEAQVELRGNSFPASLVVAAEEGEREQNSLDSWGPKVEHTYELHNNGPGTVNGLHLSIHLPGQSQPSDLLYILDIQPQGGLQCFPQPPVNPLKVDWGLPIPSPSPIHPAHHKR
T1 sequence (P08514 891-1039 limits assumed): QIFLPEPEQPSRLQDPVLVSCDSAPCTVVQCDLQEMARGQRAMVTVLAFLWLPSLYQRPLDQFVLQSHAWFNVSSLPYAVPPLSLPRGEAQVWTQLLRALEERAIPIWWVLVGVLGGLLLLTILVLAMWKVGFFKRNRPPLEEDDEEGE
Chain of Integrin alpha-V/beta-3 (P05106 27-788 limits assumed): as the sequence (P05106 27-788 limits assumed) above
Chain of Integrin alpha-V/beta-3 (P06756 31-889 limits assumed): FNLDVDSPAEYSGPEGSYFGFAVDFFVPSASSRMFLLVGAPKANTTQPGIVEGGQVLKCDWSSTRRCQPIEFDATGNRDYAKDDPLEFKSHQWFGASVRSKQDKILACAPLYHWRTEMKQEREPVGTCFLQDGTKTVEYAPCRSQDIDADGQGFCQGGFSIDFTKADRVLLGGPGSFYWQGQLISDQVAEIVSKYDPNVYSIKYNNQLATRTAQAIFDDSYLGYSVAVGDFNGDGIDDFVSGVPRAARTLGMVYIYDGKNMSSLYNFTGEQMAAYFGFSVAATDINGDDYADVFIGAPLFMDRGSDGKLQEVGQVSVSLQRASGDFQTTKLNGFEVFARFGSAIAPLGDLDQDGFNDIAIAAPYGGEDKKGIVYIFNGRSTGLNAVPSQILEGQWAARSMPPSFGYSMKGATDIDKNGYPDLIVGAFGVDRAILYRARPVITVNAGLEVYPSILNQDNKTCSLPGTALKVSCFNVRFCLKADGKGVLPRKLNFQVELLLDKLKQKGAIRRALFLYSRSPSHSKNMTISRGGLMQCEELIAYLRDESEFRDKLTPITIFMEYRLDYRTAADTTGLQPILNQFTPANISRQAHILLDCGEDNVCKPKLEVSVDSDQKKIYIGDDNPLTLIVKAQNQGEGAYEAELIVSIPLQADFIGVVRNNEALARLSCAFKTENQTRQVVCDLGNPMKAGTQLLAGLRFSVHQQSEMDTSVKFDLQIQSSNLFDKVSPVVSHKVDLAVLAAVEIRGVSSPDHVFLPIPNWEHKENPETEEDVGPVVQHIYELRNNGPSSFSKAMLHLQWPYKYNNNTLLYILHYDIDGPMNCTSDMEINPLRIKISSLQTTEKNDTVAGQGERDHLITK
Chain of Integrin alpha-V/beta-3 (P06756 891-1048 limits assumed): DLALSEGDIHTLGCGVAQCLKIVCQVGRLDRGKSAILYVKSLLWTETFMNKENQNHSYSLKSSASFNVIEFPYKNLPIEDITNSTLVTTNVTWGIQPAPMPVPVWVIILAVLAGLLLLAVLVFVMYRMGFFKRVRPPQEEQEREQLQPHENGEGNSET

Row | IC50 (Integrin alpha-V/beta-3) [nM] | IC50 [1] | IC50 (Homo sapiens) [nM] | inhibition [2] | inhibition [3] | IC50 [4] | inhibition [5] [%] | SMILES
1 | 1.8 | Not Active | 500 | inactive | inactive | – | – | O=C(CNC(=O)c1cnc(NC(=O)NCc2ccccc2)o1)NC[C@H](NC(=O)OCc1ccccc1)C(=O)O
2 | 0.4 | – | 1200 | – | inactive | Not Active | 2 | O=C(CNC(=O)c1ccc(NC(=O)NCc2ccccc2)o1)NC[C@H](NC(=O)OCc1ccccc1)C(=O)O
